Assay results as given in ChEMBL document CHEMBL1132917, “Discovery of a potent, non-triketone type inhibitor of 4-hydroxyphenylpyruvate dioxygenase” (Bioorg Med Chem Lett, 2000).

target: 4-hydroxyphenylpyruvate dioxygenase (Sus scrofa, UniProt Q02110); experiment: In vitro inhibitory activity against HPPD(4-hydroxyphenylpyruvate Dioxygenase) from pig liver using enol borate assay method
Sequence (Q02110 whole entry): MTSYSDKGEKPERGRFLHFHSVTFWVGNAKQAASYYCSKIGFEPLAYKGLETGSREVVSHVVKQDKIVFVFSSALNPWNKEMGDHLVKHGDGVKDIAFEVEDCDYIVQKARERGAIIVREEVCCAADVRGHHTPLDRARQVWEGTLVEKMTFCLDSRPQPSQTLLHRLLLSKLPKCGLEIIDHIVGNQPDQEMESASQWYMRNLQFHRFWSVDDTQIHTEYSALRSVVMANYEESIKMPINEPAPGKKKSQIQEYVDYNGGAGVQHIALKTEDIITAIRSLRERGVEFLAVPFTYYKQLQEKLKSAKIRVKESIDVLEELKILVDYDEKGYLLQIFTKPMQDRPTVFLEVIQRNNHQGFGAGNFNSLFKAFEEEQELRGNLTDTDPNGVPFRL

IC50 | SMILES
0.03 µM | O=C1C=C(OC(=O)C2CC2)CCC1
3.62 µM | CC(=O)OC1=CC(=O)CCC1
4.16 µM | CC(C)C(=O)OC1=CC(=O)CCC1
